Entries after “also recorded” stand apart in the source; their conditions may differ. Where a SMILES comes first, the peptide text is derived from it. The star is where a group is joined. Cbz = O=C(OCc1ccccc1)*; CH2F = FC*

The text below walks through data of US8329179B2, “Death domain containing receptor 4 antibodies and methods” (Human Genome Sciences, Inc., priority 1997, dated 2012).

Assay [1] deals with DR4-induced apoptosis. The assay can be described thus: Cell death assay: DR4-induced apoptosis in cells transiently transfected with a DR4 expressing construct, with death protease inhibitors. The class given is cell-based, human. Conditions: FIG. 5C.
The test system of assay [2] is DR4-induced apoptosis in MCF7 human breast carcinoma cells and 293 human embryonic kidney cells. The assay can be described thus: DR4-induced apoptosis cell death assay (transient transfection, X-Gal staining). In kind it is cell-based. Particulars: z-VAD-fmk added at 10 μM, 5 hrs after transfection; cells stained 32 hours following transfection. As for the experimental part:
Overexpression of Fas/APO-1 and TNFR-1 in mammalian cells mimics receptor activation (M. Muzio, et al., Cell 85, 817-827 (1996); M. P. Boldin, et al, Cell 85, 803-815 (1996)). Thus, this system was utilized to study the functional role of DR4. Transient expression of DR4 in MCF7 human breast carcinoma cells and 293 human embryonic kidney cells induced rapid apoptosis.
Cell death assays are performed essentially as previously described (A. M. Chinnaiyan, et al., Cell 81, 505-12 (1995); M. P. Boldin, et al, J Biol Chem 270, 7795-8 (1995); F. C. Kischkel, et al., EMBO 14, 5579-5588 (1995); A. M. Chinnaiyan, et al., J Biol Chem 271, 4961-4965 (1996)). Briefly, MCF-7 human breast carcinoma clonal cell lines stably transfected with either vector alone or a CrmA expression construct (M. Tewari, et al., J Biol Chem 270, 3255-60 (1995)), are transiently transfected with pCMV-DR4-galactosidase (or pCMV-DR4-galactosidase (lacking the death domain)) in the presence of a ten-fold excess of pcDNA3 expression constructs encoding the indicated proteins using lipofectamine (GIBCO-BRL). 293 cells are likewise transfected using the CaPO4 method. The ICE family inhibitor z-VAD-fmk (Enzyme Systems Products, Dublin, Calif.) is added to the cells at a concentration of 10 μM, 5 hrs after transfection. […]

Assay [3] concerns TRAIL-induced apoptosis in MCF7 cells. Briefly: Blocking of TRAIL-induced apoptosis in MCF7 cells by receptor-Fc fusions. The class given is cell-based, human. Particulars: FIG. 6A.

Regarding `COC(=O)C[C@H](NC(=O)[C@H](C)NC(=O)[C@@H](NC(=O)OCc1ccccc1)C(C)C)C(=O)CF` [z-VAD-fmk] (Cbz-Val-Ala-Asp(OMe)-CH2F), the “Blocking of DR4-induced apoptosis” value in assay [1] was “inhibit the apoptotic action of DR4; also recorded: efficiently blocked”; in assay [1] (listed as z-VAD-fink) it was “blocked”. Further, the DR4-induced apoptosis entry in assay [2] is “blocked”.

Turning to “CD95-Fc: extracellular domain of CD-95 expressed as Fc fusion”, the “Blocking of the ability of TRAIL to induce apoptosis” value in assay [3] is reported as “not influenced”.
